Measured values reported in patent US11331369B2, “Endoparasitic depsipeptides” (Zoetis Services LLC, priority 2017, dated 2022).

How the values were obtained:
[1] = Canine pharmacokinetic (PK) study, single IV or oral dose; conditions: dog; for Vd / clearance / half-life / Cmax: in vivo; for F: oral 1 mg/kg
[2] = test system: microfilariae of Dirofilaria immitis; experiment: Dirofilaria immitis, Microfilaria (DiMF) In vitro Assay; type: cell-based; conditions: 72 h, read-out: DiMF Minimum Effective Dose (MED), approximately 72 hours incubation, microfilariae assessed for survival or paralysis
[3] = test system: 4th stage larvae (L4) of Dirofilaria immitis; experiment: Dirofilaria immitis, L4 Stage (DiL4) In Vitro Assay; type: cell-based; conditions: Dirofilaria immitis, 72 h, read-out: DiL4 Minimum Effective Dose (MED), approximately 72 hours incubation; L4 larvae assessed for survival or paralysis
[4] = test system: third stage larvae of Haemonchus contortus; experiment: Haemonchus contortus L3 (HcL3) Assay; type: cell-based; conditions: 96 h, read-out: HcL3 Minimum Effective Dose (MED)

Compound: CC(C)C[C@H]1C(=O)O[C@H](Cc2ccc(Cn3nc(C(F)(F)F)cc3C(F)(F)F)cc2)C(=O)N(C)[C@@H](CC(C)C)C(=O)O[C@H](C)C(=O)N(C)[C@@H](CC(C)C)C(=O)O[C@H](Cc2ccc(Cn3nc(C(F)(F)F)cc3C(F)(F)F)cc2)C(=O)N(C)[C@@H](CC(C)C)C(=O)O[C@H](C)C(=O)N1C [Example 1b-15, (3S,6R,9S,12R,15S,18R,21S,24R)-6,18-bis[(4-{[3,5-bis(trifluoromethyl)-1H-pyrazol-1-yl]methyl}phenyl)methyl]-4,10,12,16,22,24-hexamethyl-3,9,15,21-tetrakis(2-methylpropyl)-1,7,13,19-tetraoxa-4,10,16,22-tetraazacyclotetracosan-2,5,8,11,14,17,20,23-octaone]
- Vd ([1]; iv, 0.2 mg/kg): 0.32 L/kg
- clearance ([1]; iv, 0.2 mg/kg): 0.05 mL/min/kg
- half-life ([1]; iv, 0.2 mg/kg): 67 h
- Cmax ([1]; po, 1 mg/kg): 5 ng/mL
- F [1]: 0.2%
- minimal effective concentration [2]: 0.01 to 0.1 µM
- minimal effective concentration [3]: ≤ 0.0001 µM

Compound: CC(C)C[C@H]1C(=O)O[C@H](Cc2ccc(Cn3cc(OC(C)C)cn3)cc2)C(=O)N(C)[C@@H](CC(C)C)C(=O)O[C@H](C)C(=O)N(C)[C@@H](CC(C)C)C(=O)O[C@H](Cc2ccc(Cn3cc(OC(C)C)cn3)cc2)C(=O)N(C)[C@@H](CC(C)C)C(=O)O[C@H](C)C(=O)N1C [Example 1b-19, (3S,6R,9S,12R,15S,18R,21S,24R)-3,9,15,21-tetraisobutyl-6,18-bis[[4-[(4-isopropoxypyrazol-1-yl)methyl]phenyl]methyl]-4,10,12,16,22,24-hexamethyl-1,7,13,19-tetraoxa-4,10,16,22-tetrazacyclotetracosane-2,5,8,11,14,17,20,23-octaone]
- Vd ([1]; iv, 0.2 mg/kg): 7.25 L/kg
- clearance ([1]; iv, 0.2 mg/kg): 2.4 mL/min/kg
- half-life ([1]; iv, 0.2 mg/kg): 87 h
- Cmax ([1]; po, 1 mg/kg): 267 ng/mL
- F [1]: 24%
- minimal effective concentration [4]: 1 to 10 µM
- minimal effective concentration [2]: 0.001 to 0.01 µM
- minimal effective concentration [3]: 0.001 to 0.01 µM

Compound: CCOc1cnn(Cc2ccc(C[C@H]3OC(=O)[C@H](CC(C)C)N(C)C(=O)[C@@H](C)OC(=O)[C@H](CC(C)C)N(C)C(=O)[C@@H](Cc4ccc(Cn5cc(OCC)cn5)cc4)OC(=O)[C@H](CC(C)C)N(C)C(=O)[C@@H](C)OC(=O)[C@H](CC(C)C)N(C)C3=O)cc2)c1 [Example 1b-21, (3S,6R,9S,12R,15S,18R,21S,24R)-6,18-bis[[4-[(4-ethoxypyrazol-1-yl)methyl]phenyl]methyl]-3,9,15,21-tetraisobutyl-4,10,12,16,22,24-hexamethyl-1,7,13,19-tetraoxa-4,10,16,22-tetrazacyclotetracosane-2,5,8,11,14,17,20,23-octaone]
- Vd ([1]; iv, 0.2 mg/kg): 28.4 L/kg
- clearance ([1]; iv, 0.2 mg/kg): 15.5 mL/min/kg
- half-life ([1]; iv, 0.2 mg/kg): 36.1 h
- Cmax ([1]; po, 1 mg/kg): 145 ng/mL
- F [1]: 78%
- minimal effective concentration [4]: 1 to 10 µM
- minimal effective concentration [2]: 0.001 to 0.01 µM
- minimal effective concentration [3]: 0.0001 to 0.001 µM

Compound: CC(C)C[C@H]1C(=O)O[C@H](Cc2ccc(Cn3cccn3)cc2)C(=O)N(C)[C@@H](CC(C)C)C(=O)O[C@H](C)C(=O)N(C)[C@@H](CC(C)C)C(=O)O[C@H](Cc2ccc(Cn3cccn3)cc2)C(=O)N(C)[C@@H](CC(C)C)C(=O)O[C@H](C)C(=O)N1C [Example 1b-23, (3S,6R,9S,12R,15S,18R,21S,24R)-3,9,15,21-tetraisobutyl-4,6,10,16,18,22-hexamethyl-12,24-bis[[4-(pyrazol-1-ylmethyl)phenyl]methyl]-1,7,13,19-tetraoxa-4,10,16,22-tetrazacyclotetracosane-2,5,8,11,14,17,20,23-octaone]
- Vd ([1]; iv, 0.2 mg/kg): 8.54 L/kg
- clearance ([1]; iv, 0.2 mg/kg): 14 mL/min/kg
- half-life ([1]; iv, 0.2 mg/kg): 27 h
- Cmax ([1]; po, 1 mg/kg): 205 ng/mL
- F [1]: 34%
- minimal effective concentration [4]: ≤ 1 µM
- minimal effective concentration [3]: 0.0001 to 0.001 µM

Compound: CC(C)C[C@H]1C(=O)O[C@H](Cc2ccc(Cn3cc(C4CC4)cn3)cc2)C(=O)N(C)[C@@H](CC(C)C)C(=O)O[C@H](C)C(=O)N(C)[C@@H](CC(C)C)C(=O)O[C@H](Cc2ccc(Cn3cc(C4CC4)cn3)cc2)C(=O)N(C)[C@@H](CC(C)C)C(=O)O[C@H](C)C(=O)N1C [Example 1b-45, (3S,6R,9S,12R,15S,18R,21S,24R)-6,18-bis(4-((4-cyclopropyl-1H-pyrazol-1-yl)methyl)benzyl)-3,9,15,21-tetraisobutyl-4,10,12,16,22,24-hexamethyl-1,7,13,19-tetraoxa-4,10,16,22-tetraazacyclotetracosan-2,5,8,11,14,17,20,23-octaone]
- Cmax ([1]; po, 1 mg/kg): 127 ng/mL
- half-life ([1]; po, 1 mg/kg): 104 h
- minimal effective concentration [2]: 0.01 to 0.1 µM

Compound: CC(C)C[C@H]1C(=O)O[C@H](Cc2ccc(Cn3ccc(-c4ccccc4)n3)cc2)C(=O)N(C)[C@@H](CC(C)C)C(=O)O[C@H](C)C(=O)N(C)[C@@H](CC(C)C)C(=O)O[C@H](Cc2ccc(Cn3ccc(-c4ccccc4)n3)cc2)C(=O)N(C)[C@@H](CC(C)C)C(=O)O[C@H](C)C(=O)N1C [Example 1b-68, (3S,6R,9S,12R,15S,18R,21S,24R)-3,9,15,21-tetraisobutyl-4,6,10,16,18,22-hexamethyl-12,24-bis(4-((3-phenyl-1H-pyrazol-1-yl)methyl)benzyl)-1,7,13,19-tetraoxa-4,10,16,22-tetraazacyclotetracosan-2,5,8,11,14,17,20,23-octaone]
- Vd ([1]; iv, 0.2 mg/kg): 7.58 L/kg
- clearance ([1]; iv, 0.2 mg/kg): 1 mL/min/kg
- half-life ([1]; iv, 0.2 mg/kg): 163 h
- Cmax ([1]; po, 1 mg/kg): 39 ng/mL
- F [1]: 4%
- minimal effective concentration [3]: 0.001 to 0.01 µM

Compound: CC(C)C[C@H]1C(=O)O[C@H](Cc2ccc(Cn3ccc(C(F)(F)F)n3)cc2)C(=O)N(C)[C@@H](CC(C)C)C(=O)O[C@H](C)C(=O)N(C)[C@@H](CC(C)C)C(=O)O[C@H](Cc2ccc(Cn3ccc(C(F)(F)F)n3)cc2)C(=O)N(C)[C@@H](CC(C)C)C(=O)O[C@H](C)C(=O)N1C [Example 1b-69, (3S,6R,9S,12R,15S,18R,21S,24R)-3,9,15,21-tetraisobutyl-4,6,10,16,18,22-hexamethyl-12,24-bis(4-((3-(trifluoromethyl)-1H-pyrazol-1-yl)methyl)benzyl)-1,7,13,19-tetraoxa-4,10,16,22-tetraazacyclotetracosan-2,5,8,11,14,17,20,23-octaone]
- Vd ([1]; iv, 0.2 mg/kg): 3.81 L/kg
- clearance ([1]; iv, 0.2 mg/kg): 1 mL/min/kg
- half-life ([1]; iv, 0.2 mg/kg): 256 h
- Cmax ([1]; po, 1 mg/kg): 27 ng/mL
- F [1]: 5%
- minimal effective concentration [2]: 0.01 to 0.1 µM
- minimal effective concentration [3]: 0.001 to 0.01 µM

Compound: CC(C)C[C@H]1C(=O)O[C@H](Cc2ccc(Cn3nccc3C3CC3)cc2)C(=O)N(C)[C@@H](CC(C)C)C(=O)O[C@H](C)C(=O)N(C)[C@@H](CC(C)C)C(=O)O[C@H](Cc2ccc(Cn3nccc3C3CC3)cc2)C(=O)N(C)[C@@H](CC(C)C)C(=O)O[C@H](C)C(=O)N1C [Example 1b-108, (3S,6R,9S,12R,15S,18R,21S,24R)-6,18-bis(4-((5-cyclopropyl-1H-pyrazol-1-yl)methyl)benzyl)-3,9,15,21-tetraisobutyl-4,10,12,16,22,24-hexamethyl-1,7,13,19-tetraoxa-4,10,16,22-tetraazacyclotetracosan-2,5,8,11,14,17,20,23-octaone]
- Vd ([1]; iv, 0.2 mg/kg): 5.6 L/kg
- clearance ([1]; iv, 0.2 mg/kg): 6 mL/min/kg
- half-life ([1]; iv, 0.2 mg/kg): 51 h
- Cmax ([1]; po, 1 mg/kg): 178 ng/mL
- F [1]: 30%
- minimal effective concentration [4]: ≤ 1 µM
- minimal effective concentration [2]: 0.001 to 0.01 µM
- minimal effective concentration [3]: 0.0001 to 0.001 µM

Compound: CC(C)C[C@H]1C(=O)O[C@H](Cc2ccc(CN3CCOc4ccccc43)cc2)C(=O)N(C)[C@@H](CC(C)C)C(=O)O[C@H](C)C(=O)N(C)[C@@H](CC(C)C)C(=O)O[C@H](Cc2ccc(CN3CCOc4ccccc43)cc2)C(=O)N(C)[C@@H](CC(C)C)C(=O)O[C@H](C)C(=O)N1C [Example 9-26, (3S,6R,9S,12R,15S,18R,21S,24R)-6,18-bis(4-((2,3-dihydro-4H-benzo[b][1,4]oxazin-4-yl)methyl)benzyl)-3,9,15,21-tetraisobutyl-4,10,12,16,22,24-hexamethyl-1,7,13,19-tetraoxa-4,10,16,22-tetraazacyclotetracosan-2,5,8,11,14,17,20,23-octaone]
- Vd ([1]; iv, 0.2 mg/kg): 0.6 L/kg
- clearance ([1]; iv, 0.2 mg/kg): 0.1 mL/min/kg
- half-life ([1]; iv, 0.2 mg/kg): 106 h
- Cmax ([1]; po, 1 mg/kg): 71 ng/mL
- F [1]: 1%
- minimal effective concentration [3]: 0.0001 to 0.001 µM
